Assay results as given in the supplement of paper PMC11208160.

experiment: recombinant UMI read abundance after kanamycin selection (control-corrected) (log10(CPM+1)); higher = more efficient recombination; extreme values may be limits of the assay; sequences stand for … in AGTGCAGAGAAAATCGGCCAGTTTTCTCTGCCTGCAGTCCGCATGCCGTGGGACCCCTTGGGTTCTAACCTGTTGCCTAGATTTATGCAGCGGACTGCCTTTCTCCCAAAGTGATAAACCGG…AGGTTGGTTTCACT; site = the 11-nt donor
Method: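 Pooled E. coli donor-specificity screen for the IS621 bridge recombinase. Each library member carries a reprogrammed 11-nt donor and a full-length LE bridge RNA expressed in cis from the natural promoter, with a paired donor-binding loop (8-nt LDG + 4-nt RDG) and a target-binding loop fixed to T5. It is co-electroporated with a T5 target plasmid; recombinase is induced with 0.07 mM IPTG and recombinants are selected on kanamycin. UMIs are counted as CPM, averaged over two biological replicates and corrected by the unselected control. Molecule = full bridge RNA written as DNA, built from the T5 scaffold: LDG = donor specificity nt 1-8, RDG = reverse complement of nt 8-11.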
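Also: IS621 bridge recombinase in Escherichia coli cells against a fixed T5 target plasmid.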

Going from “AGAAGGGCATGGACCGGTTTTCCCGGTAATCCGTATTTGCT (site AGAATGGCTAG)” to “AGAAGTCCATGGACCGGTTTTCCCGGTAATCCGTATTTGAA (site AGAAGTCCTTT)”, the “recombinant UMI read abundance (log10)” value rises from 0.25 to 1.33.

First: AGACAATCATGGACCGGTTTTCCCGGTAATCCGTATTTGAG (site AGACAATCTCT)
Second: AGACAATCATGGACCGGTTTTCCCGGTAATCCGTATTTGTA (site AGACAATCTTA)
The “recombinant UMI read abundance (log10)” value of the first is higher: 2.98 for the first, 2.63 for the second.

“AGACACTCATGGACCGGTTTTCCCGGTAATCCGTATTTGGT (site AGACACTCTAC)” and “AGACAGTCATGGACCGGTTTTCCCGGTAATCCGTATTTGAT (site AGACAGTCTAT)” are within 0.2 log units of each other in “recombinant UMI read abundance (log10)” value: 2.78 for the first, 2.94 for the second.

First: AGACATCCATGGACCGGTTTTCCCGGTAATCCGTATTTGAC (site AAACATCCTGT)
Second: AGACATCCATGGACCGGTTTTCCCGGTAATCCGTATTTGAC (site ACACATCCTGT)
The “recombinant UMI read abundance (log10)” value of the first is lower: 0 for the first, 0.237 for the second.

“AGACATCCATGGACCGGTTTTCCCGGTAATCCGTATTTGAC (site AGACATCCTGT)” and “AGACATCCATGGACCGGTTTTCCCGGTAATCCGTATTTGAC (site ATACATCCTGT)” are the same in “recombinant UMI read abundance (log10)” value: 0 for the first, 0 for the second.

Compared with “AGACATGCATGGACCGGTTTTCCCGGTAATCCGTATTTGCC (site AGACATGCTGG)”, “AGACGAACATGGACCGGTTTTCCCGGTAATCCGTATTTGTC (site AAACGAACTGA)” is lower in “recombinant UMI read abundance (log10)” value: 3.01 for the first, 0 for the second.

Going from “AGACGAACATGGACCGGTTTTCCCGGTAATCCGTATTTGTC (site ACACGAACTGA)” to “AGACGAACATGGACCGGTTTTCCCGGTAATCCGTATTTGTC (site AGACGAACTGA)”, the “recombinant UMI read abundance (log10)” value rises from 0 to 1.35.

Going from “AGACGAACATGGACCGGTTTTCCCGGTAATCCGTATTTGTC (site ATACGAACTGA)” to “AGACGGGCATGGACCGGTTTTCCCGGTAATCCGTATTTGTC (site AGACGGGCTGA)”, the “recombinant UMI read abundance (log10)” value rises from 0.731 to 2.3.

“AGAGCATCATGGACCGGTTTTCCCGGTAATCCGTATTTGGT (site AGAGCATCTAC)” and “AGAGTAACATGGACCGGTTTTCCCGGTAATCCGTATTTGCA (site AGAGTAACTTG)” are within 0.2 log units of each other in “recombinant UMI read abundance (log10)” value: 2.89 for the first, 2.71 for the second.

“AGAGTATCATGGACCGGTTTTCCCGGTAATCCGTATTTGCA (site AAAGTATCTTG)” and “AGAGTATCATGGACCGGTTTTCCCGGTAATCCGTATTTGCA (site ACAGTATCTTG)” are within 0.2 log units of each other in “recombinant UMI read abundance (log10)” value: 2.57 for the first, 2.7 for the second.

Compared with “AGAGTATCATGGACCGGTTTTCCCGGTAATCCGTATTTGCA (site AGAGTATCTTG)”, “AGAGTATCATGGACCGGTTTTCCCGGTAATCCGTATTTGCA (site ATAGTATCTTG)” is lower in “recombinant UMI read abundance (log10)” value: 3.29 for the first, 1.83 for the second.

First: AGAGTATCATGGACCGGTTTTCCCGGTAATCCGTATTTGCC (site ACAGTATCTTG)
Second: AGAGTATCATGGACCGGTTTTCCCGGTAATCCGTATTTGCC (site AGAGTATCTGG)
The “recombinant UMI read abundance (log10)” value of the first is lower: 0 for the first, 2.98 for the second.

Going from “AGAGTCACATGGACCGGTTTTCCCGGTAATCCGTATTTGAG (site AGAGTCACTCT)” to “AGAGTGCCATGGACCGGTTTTCCCGGTAATCCGTATTTGGG (site AGAGTGCCTCC)”, the “recombinant UMI read abundance (log10)” value falls from 2.34 to 0.0257.

First: AGATAATCATGGACCGGTTTTCCCGGTAATCCGTATTTGCG (site AGATAATCTCG)
Second: AGATAGACATGGACCGGTTTTCCCGGTAATCCGTATTTGCC (site AGATAGACTGG)
The “recombinant UMI read abundance (log10)” value of the first is lower: 2.61 for the first, 3.03 for the second.

“AGATAGACATGGACCGGTTTTCCCGGTAATCCGTATTTGCC (site CGATAGACTGG)” and “AGATAGACATGGACCGGTTTTCCCGGTAATCCGTATTTGCC (site GGATAGACTGG)” are within 0.2 log units of each other in “recombinant UMI read abundance (log10)” value: 1.36 for the first, 1.35 for the second.

Compared with “AGATAGACATGGACCGGTTTTCCCGGTAATCCGTATTTGCC (site TGATAGACTGG)”, “AGATAGGCATGGACCGGTTTTCCCGGTAATCCGTATTTGCT (site AGAAAGGCTAG)” is lower in “recombinant UMI read abundance (log10)” value: 2.34 for the first, 0.622 for the second.

Compared with “AGATAGGCATGGACCGGTTTTCCCGGTAATCCGTATTTGCT (site AGACAGGCTAG)”, “AGATAGGCATGGACCGGTTTTCCCGGTAATCCGTATTTGCT (site AGAGAGGCTAG)” is lower in “recombinant UMI read abundance (log10)” value: 2.12 for the first, 0.862 for the second.

“AGATAGGCATGGACCGGTTTTCCCGGTAATCCGTATTTGCT (site AGATAGGCTAG)” and “AGATAGGCATGGACCGGTTTTCCCGGTAATCCGTATTTGTA (site AGATAGGCTTA)” are within 0.2 log units of each other in “recombinant UMI read abundance (log10)” value: 2.66 for the first, 2.52 for the second.

Compared with “AGATCCCCATGGACCGGTTTTCCCGGTAATCCGTATTTGTA (site AGATCCCCTTA)”, “AGATGAGCATGGACCGGTTTTCCCGGTAATCCGTATTTGCA (site AGATGAGCTTG)” is higher in “recombinant UMI read abundance (log10)” value: 0.595 for the first, 2.71 for the second.

Compared with “AGATGTTCATGGACCGGTTTTCCCGGTAATCCGTATTTGTT (site AGATGTTCTAA)”, “AGATTAGCATGGACCGGTTTTCCCGGTAATCCGTATTTGAT (site AGATTAGCTAT)” is higher in “recombinant UMI read abundance (log10)” value: 1.45 for the first, 2.09 for the second.

Compared with “AGCAACGCATGGACCGGTTTTCCCGGTAATCCGTATTTGTG (site AGCAACGCTCA)”, “AGCAATACATGGACCGGTTTTCCCGGTAATCCGTATTTGCA (site AGCAATACTTG)” is higher in “recombinant UMI read abundance (log10)” value: 1.36 for the first, 1.73 for the second.

Compared with “AGCAATACATGGACCGGTTTTCCCGGTAATCCGTATTTGCA (site AGGAAGACTTG)”, “AGCACGGCATGGACCGGTTTTCCCGGTAATCCGTATTTGCT (site AGCACGGCTAG)” is higher in “recombinant UMI read abundance (log10)” value: 0 for the first, 1.9 for the second.

First: AGCACTACATGGACCGGTTTTCCCGGTAATCCGTATTTGAC (site AGAACTACTGT)
Second: AGCACTACATGGACCGGTTTTCCCGGTAATCCGTATTTGAC (site AGCACTACTGT)
The “recombinant UMI read abundance (log10)” value of the first is lower: 1.25 for the first, 1.85 for the second.

“AGCACTACATGGACCGGTTTTCCCGGTAATCCGTATTTGAC (site AGGACTACTGT)” and “AGCACTACATGGACCGGTTTTCCCGGTAATCCGTATTTGAC (site AGTACTACTGT)” are within 0.2 log units of each other in “recombinant UMI read abundance (log10)” value: 0.927 for the first, 0.741 for the second.

Compared with “AGCATCCCATGGACCGGTTTTCCCGGTAATCCGTATTTGGC (site AGCATCCCTGC)”, “AGCCAAGCATGGACCGGTTTTCCCGGTAATCCGTATTTGAG (site AACCAAGCTCT)” is lower in “recombinant UMI read abundance (log10)” value: 1.74 for the first, 0.0428 for the second.

Going from “AGCCAAGCATGGACCGGTTTTCCCGGTAATCCGTATTTGAG (site ACCCAAGCTCT)” to “AGCCAAGCATGGACCGGTTTTCCCGGTAATCCGTATTTGAG (site AGCCAAGCTCT)”, the “recombinant UMI read abundance (log10)” value rises from 0.641 to 1.3.

First: AGCCAAGCATGGACCGGTTTTCCCGGTAATCCGTATTTGAG (site ATCCAAGCTCT)
Second: AGCCGCTCATGGACCGGTTTTCCCGGTAATCCGTATTTGAT (site AGCCGCTCTAT)
The “recombinant UMI read abundance (log10)” value of the first is lower: 0.655 for the first, 1.65 for the second.

“AGCCGTCCATGGACCGGTTTTCCCGGTAATCCGTATTTGAT (site AACCGTCCTAT)” and “AGCCGTCCATGGACCGGTTTTCCCGGTAATCCGTATTTGAT (site ACCCGTCCTAT)” are within 0.2 log units of each other in “recombinant UMI read abundance (log10)” value: 0.00909 for the first, 0 for the second.

First: AGCCGTCCATGGACCGGTTTTCCCGGTAATCCGTATTTGAT (site AGCCGTCCTAT)
Second: AGCCGTCCATGGACCGGTTTTCCCGGTAATCCGTATTTGAT (site ATCCGTCCTAT)
The “recombinant UMI read abundance (log10)” value of the first is higher: 1.09 for the first, 0.0112 for the second.

“AGCCTCTCATGGACCGGTTTTCCCGGTAATCCGTATTTGAC (site AGCCTATCTGT)” and “AGCCTCTCATGGACCGGTTTTCCCGGTAATCCGTATTTGAC (site AGCCTCTCTGT)” are the same in “recombinant UMI read abundance (log10)” value: 0 for the first, 0 for the second.

“AGCCTCTCATGGACCGGTTTTCCCGGTAATCCGTATTTGAC (site AGCCTGTCTGT)” and “AGCCTCTCATGGACCGGTTTTCCCGGTAATCCGTATTTGAC (site AGCCTTTCTGT)” are the same in “recombinant UMI read abundance (log10)” value: 0 for the first, 0 for the second.

Going from “AGCCTTACATGGACCGGTTTTCCCGGTAATCCGTATTTGAC (site AGCCTTACTGT)” to “AGCCTTACATGGACCGGTTTTCCCGGTAATCCGTATTTGAC (site AGCCTTCCTGT)”, the “recombinant UMI read abundance (log10)” value falls from 2.52 to 0.

“AGCCTTACATGGACCGGTTTTCCCGGTAATCCGTATTTGAC (site AGCCTTGCTGT)” and “AGCCTTACATGGACCGGTTTTCCCGGTAATCCGTATTTGAC (site AGCCTTTCTGT)” are the same in “recombinant UMI read abundance (log10)” value: 0 for the first, 0 for the second.

“AGCCTTGCATGGACCGGTTTTCCCGGTAATCCGTATTTGTA (site AGCCTTGCTTA)” and “AGCCTTTCATGGACCGGTTTTCCCGGTAATCCGTATTTGGC (site AGCCTTTCTGA)” are within 0.2 log units of each other in “recombinant UMI read abundance (log10)” value: 0.019 for the first, 0 for the second.

“AGCCTTTCATGGACCGGTTTTCCCGGTAATCCGTATTTGGC (site AGCCTTTCTGC)” and “AGCCTTTCATGGACCGGTTTTCCCGGTAATCCGTATTTGGC (site AGCCTTTCTGG)” are the same in “recombinant UMI read abundance (log10)” value: 0 for the first, 0 for the second.

Going from “AGCCTTTCATGGACCGGTTTTCCCGGTAATCCGTATTTGGC (site AGCCTTTCTGT)” to “AGCGAGCCATGGACCGGTTTTCCCGGTAATCCGTATTTGTA (site AGCGAGCCTTA)”, the “recombinant UMI read abundance (log10)” value rises from 0 to 0.53.
